Measurements from patent US8962842B2, “2-pyridone antimicrobial compositions” (priority 2010, dated 2015).
≈ marks a conversion by molar mass, not a printed value. Where two headings read alike, the source gives them in different places.

What was measured:
[1] = test system: Escherichia coli (6 strains); experiment: MIC range, broader panel of Quotient Bioresearch strains (Table 4); format: cell-based; conditions: for MIC50: read-out: MIC Range Median, Escherichia coli (6 strains)
[2] = test system: Klebsiella pneumonia (4 strains); experiment: as above; format: cell-based; conditions: Klebsiella pneumoniae; for MIC50: read-out: MIC Range Median, Klebsiella pneumonia (4 strains)
[3] = test system: Pseudomonas aeruginosa (12 strains); experiment: as above; format: cell-based; conditions: for MIC50: read-out: MIC Range Median, Pseudomonas aeruginosa (12 strains)
[4] = test system: Burkholderia cepacia (5 strains); experiment: as above; format: cell-based; conditions: for MIC50: read-out: MIC Range Median, Burkholderia cepacia (5 strains)
[5] = test system: Haemophilus influenza (5 strains); experiment: as above; format: cell-based, Haemophilus influenzae; conditions: for MIC50: 16 h, Median of the strain panel
[6] = test system: Acinetobacter baumannii (12 strains); experiment: as above; format: cell-based; conditions: for MIC50: read-out: MIC Range Median, Acinetobacter baumannii (12 strains)
[7] = test system: Staphylococcus aureus (16 strains); experiment: MIC range, broader panel of Quotient Bioresearch strains (Table 3); conditions: for MIC50: read-out: MIC Range Median, Staphylococcus aureus (16 strains)
[8] = test system: Enterococcus faecalis (5 strains); experiment: as above; conditions: for MIC50: read-out: MIC Range Median, Enterococcus faecalis (5 strains)
[9] = test system: Enterococcus faecium (3 strains); experiment: as above; conditions: for MIC50: read-out: MIC Range Median, Enterococcus faecium (3 strains)
[10] = test system: Streptococcus pneumonia (5 strains); experiment: as above; conditions: Streptococcus pneumoniae; for MIC50: read-out: MIC Range Median, Streptococcus pneumonia (5 strains)
[11] = test system: Streptococcus pyogenes (4 strains); experiment: as above; conditions: for MIC50: read-out: MIC Range Median, Streptococcus pyogenes (4 strains)
[12] = test system: Group C Streptococcus (4 strains); experiment: as above; conditions: for MIC50: read-out: MIC Range Median, Group C Streptococcus (4 strains)
[13] = test system: Bacterial strains injected into thigh muscles; format: in vivo, mice; conditions: MRSA ATCC 43300, mouse thigh, 25 mg/kg i.v. once
[14] = read-out: MIC Range High, Burkholderia cepacia (5 strains)
[15] = read-out: MIC Range Low, Burkholderia cepacia (5 strains)
[16] = High of the strain panel, read-out: MIC Range High, Haemophilus influenza (5 strains)
[17] = Low of the strain panel, read-out: MIC Range Low, Haemophilus influenza (5 strains)
[18] = read-out: MIC Range High, Staphylococcus aureus (16 strains)
[19] = read-out: MIC Range Low, Staphylococcus aureus (16 strains)
[20] = read-out: MIC Range High, Enterococcus faecalis (5 strains)
[21] = read-out: MIC Range Low, Enterococcus faecalis (5 strains)
[22] = read-out: MIC Range High, Enterococcus faecium (3 strains)
[23] = read-out: MIC Range Low, Enterococcus faecium (3 strains)
[24] = read-out: MIC Range High, Streptococcus pneumonia (5 strains)
[25] = read-out: MIC Range Low, Streptococcus pneumonia (5 strains)
[26] = read-out: MIC Range High, Streptococcus pyogenes (4 strains)
[27] = read-out: MIC Range Low, Streptococcus pyogenes (4 strains)
[28] = read-out: MIC Range High, Group C Streptococcus (4 strains)
[29] = read-out: MIC Range Low, Group C Streptococcus (4 strains)
[30] = read-out: MIC Range High, Escherichia coli (6 strains)
[31] = read-out: MIC Range Low, Escherichia coli (6 strains)
[32] = read-out: MIC Range High, Klebsiella pneumonia (4 strains)
[33] = read-out: MIC Range Low, Klebsiella pneumonia (4 strains)
[34] = read-out: MIC Range High, Pseudomonas aeruginosa (12 strains)
[35] = read-out: MIC Range Low, Pseudomonas aeruginosa (12 strains)
[36] = read-out: MIC Range High, Acinetobacter baumannii (12 strains)
[37] = read-out: MIC Range Low, Acinetobacter baumannii (12 strains)

Question: What does the source list for Cc1c(C2=CCNCC2)ccn2c(=O)c(C(=O)O)cc(C3CC3)c12 [Example 42, 1-cyclopropyl-9-methyl-4-oxo-8-(1,2,3,6-tetrahydropyridin-4-yl)-4H-quinolizine-3-carboxylic acid]?
Answer: MIC ([1]; High of the strain panel, read-out: MIC Range High, Escherichia coli (6 strains)): > 32 µg/mL; MIC ([1]; Low of the strain panel, read-out: MIC Range Low, Escherichia coli (6 strains)): 0.06 µg/mL (≈ 0.185 µM); MIC50 ([1]; Median of the strain panel): 32 µg/mL (≈ 98.6 µM); MIC ([2]; High of the strain panel, read-out: MIC Range High, Klebsiella pneumonia (4 strains)): > 32 µg/mL; MIC ([2]; Low of the strain panel, read-out: MIC Range Low, Klebsiella pneumonia (4 strains)): 0.12 µg/mL (≈ 0.37 µM); MIC50 ([2]; Median of the strain panel): 8 µg/mL (≈ 24.7 µM); MIC ([3]; High of the strain panel, read-out: MIC Range High, Pseudomonas aeruginosa (12 strains)): > 32 µg/mL; MIC ([3]; Low of the strain panel, read-out: MIC Range Low, Pseudomonas aeruginosa (12 strains)): 1 µg/mL (≈ 3.08 µM); MIC50 ([3]; Median of the strain panel): 32 µg/mL (≈ 98.6 µM); MIC [4, 14]: 2 µg/mL (≈ 6.17 µM); MIC [4, 15]: 2 µg/mL (≈ 6.17 µM); MIC50 [4]: 2 µg/mL (≈ 6.17 µM); MIC50 [5]: 0.06 µg/mL (≈ 0.185 µM); MIC [5, 16]: 0.06 µg/mL (≈ 0.185 µM); MIC [5, 17]: 0.03 µg/mL (≈ 0.0925 µM); MIC ([6]; High of the strain panel, read-out: MIC Range High, Acinetobacter baumannii (12 strains)): > 32 µg/mL; MIC ([6]; Low of the strain panel, read-out: MIC Range Low, Acinetobacter baumannii (12 strains)): 0.25 µg/mL (≈ 0.771 µM); MIC50 ([6]; Median of the strain panel): > 32 µg/mL; MIC [7, 18]: 32 µg/mL (≈ 98.6 µM); MIC [7, 19]: 0.5 µg/mL (≈ 1.54 µM); MIC50 [7]: 16.2 µg/mL (≈ 50.1 µM); MIC [8, 20]: 32 µg/mL (≈ 98.6 µM); MIC [8, 21]: 4 µg/mL (≈ 12.3 µM); MIC50 [8]: 4 µg/mL (≈ 12.3 µM); MIC [9, 22]: > 32 µg/mL; MIC [9, 23]: 16 µg/mL (≈ 49.3 µM); MIC50 [9]: > 32 µg/mL; MIC [10, 24]: 8 µg/mL (≈ 24.7 µM); MIC [10, 25]: 4 µg/mL (≈ 12.3 µM); MIC50 [10]: 4 µg/mL (≈ 12.3 µM); MIC [11, 26]: 8 µg/mL (≈ 24.7 µM); MIC [11, 27]: 2 µg/mL (≈ 6.17 µM); MIC50 [11]: 3 µg/mL (≈ 9.25 µM); MIC [12, 28]: 4 µg/mL (≈ 12.3 µM); MIC [12, 29]: 2 µg/mL (≈ 6.17 µM); MIC50 [12]: 2 µg/mL (≈ 6.17 µM)

Question: Cc1c(-c2ccc(N)c(F)c2)c(F)cn2c(=O)c(C(=O)[O-])cc(C3CC3)c12.[K+] [Example 1 K salt, potassium 8-(4-amino-3-fluoro-phenyl)-1-cyclopropyl-7-fluoro-9-methyl-4-oxo-4H-quinolizine-3-carboxylate] was tested. Which MIC [1, 30] did it give?
Answer: Its MIC is > 32 µg/mL.

Question: What about the MIC [1, 31] of the same compound?
Answer: Its MIC is 0.06 µg/mL.

Question: What about the MIC50 [1] of the same compound?
Answer: The MIC50 was > 32 µg/mL.

Question: And the MIC [2, 32]?
Answer: Its MIC is > 32 µg/mL.

Question: And the MIC [2, 33]?
Answer: The MIC was 0.5 µg/mL.

Question: And the MIC50 [2]?
Answer: Its MIC50 is 16 µg/mL.

Question: And the MIC [3, 34]?
Answer: The MIC was 32 µg/mL.

Question: And the MIC [3, 35]?
Answer: Its MIC is 2 µg/mL.

Question: What about the MIC50 [3] of the same compound?
Answer: Its MIC50 is 16 µg/mL.

Question: What about the MIC [4, 14] of the same compound?
Answer: The MIC was 2 µg/mL.

Question: And the MIC [4, 15]?
Answer: The MIC was 0.5 µg/mL.

Question: What about the MIC50 [4] of the same compound?
Answer: Its MIC50 is 1 µg/mL.

Question: What about the MIC50 [5] of the same compound?
Answer: The MIC50 was ≤ 0.015 µg/mL.

Question: And the MIC [5, 16]?
Answer: The MIC was 0.03 µg/mL.

Question: And the MIC [5, 17]?
Answer: Its MIC is ≤ 0.015 µg/mL.

Question: What about the MIC [6, 36] of the same compound?
Answer: Its MIC is > 32 µg/mL.

Question: What about the MIC [6, 37] of the same compound?
Answer: Its MIC is 0.25 µg/mL.

Question: What about the MIC50 [6] of the same compound?
Answer: Its MIC50 is 20 µg/mL.

Question: What about the MIC [7, 18] of the same compound?
Answer: Its MIC is 0.5 µg/mL.

Question: What about the MIC [7, 19] of the same compound?
Answer: The MIC was ≤ 0.015 µg/mL.

Question: And the MIC50 [7]?
Answer: Its MIC50 is 0.5 µg/mL.

Question: And the MIC [8, 20]?
Answer: The MIC was 4 µg/mL.

Question: What about the MIC [8, 21] of the same compound?
Answer: Its MIC is 0.12 µg/mL.

Question: And the MIC50 [8]?
Answer: Its MIC50 is 0.12 µg/mL.

Question: What about the MIC [9, 22] of the same compound?
Answer: Its MIC is 8 µg/mL.

Question: What about the MIC [9, 23] of the same compound?
Answer: The MIC was 1 µg/mL.

Question: What about the MIC50 [9] of the same compound?
Answer: Its MIC50 is 2 µg/mL.

Question: What about the MIC [10, 24] of the same compound?
Answer: Its MIC is 0.5 µg/mL.

Question: What about the MIC [10, 25] of the same compound?
Answer: The MIC was 0.5 µg/mL.

Question: What about the MIC50 [10] of the same compound?
Answer: Its MIC50 is 0.5 µg/mL.

Question: What about the MIC [11, 26] of the same compound?
Answer: Its MIC is 1 µg/mL.

Question: What about the MIC [11, 27] of the same compound?
Answer: The MIC was 0.5 µg/mL.

Question: What about the MIC50 [11] of the same compound?
Answer: The MIC50 was 0.5 µg/mL.

Question: What about the MIC [12, 28] of the same compound?
Answer: The MIC was 0.5 µg/mL.

Question: What about the MIC [12, 29] of the same compound?
Answer: Its MIC is 0.12 µg/mL.

Question: What about the MIC50 [12] of the same compound?
Answer: The MIC50 was 0.25 µg/mL.

Question: CN[C@H](CC(C)C)C(=O)N[C@H]1C(=O)N[C@@H](CC(N)=O)C(=O)N[C@H]2C(=O)N[C@H]3C(=O)N[C@H](C(=O)N[C@H](C(=O)O)c4cc(O)cc(O)c4-c4cc3ccc4O)[C@H](O)c3ccc(c(Cl)c3)Oc3cc2cc(c3O[C@@H]2O[C@H](CO)[C@@H](O)[C@H](O)[C@H]2O[C@H]2C[C@](C)(N)[C@H](O)[C@H](C)O2)Oc2ccc(cc2Cl)[C@H]1O [vancomycin] was tested. Which “Log reduction (LgR) from vehicle control (CFU/g)” value [13] did it give?
Answer: The value was 2.71.

Question: What does the source list for Cc1c(-c2cc(F)c(N)c(F)c2)ccn2c(=O)c(C(=O)[O-])cc(C3CC3)c12.[K+] [Example 39 K salt, potassium 8-(4-amino-3,5-difluoro-phenyl)-1-cyclopropyl-9-methyl-4-oxo-4H-quinolizine-3-carboxylate]?
Answer: MIC [1, 30]: 16 µg/mL; MIC [1, 31]: ≤ 0.015 µg/mL; MIC50 [1]: 12 µg/mL; MIC [2, 32]: 32 µg/mL; MIC [2, 33]: 0.12 µg/mL; MIC50 [2]: 9 µg/mL; MIC [3, 34]: 16 µg/mL; MIC [3, 35]: 0.5 µg/mL; MIC50 [3]: 4 µg/mL; MIC [4, 14]: 0.5 µg/mL; MIC [4, 15]: 0.06 µg/mL; MIC50 [4]: 0.25 µg/mL; MIC50 [5]: ≤ 0.015 µg/mL; MIC [5, 16]: ≤ 0.015 µg/mL; MIC [5, 17]: ≤ 0.015 µg/mL; MIC [6, 36]: 16 µg/mL; MIC [6, 37]: 0.06 µg/mL; MIC50 [6]: 4 µg/mL; MIC [7, 18]: 0.12 µg/mL; MIC [7, 19]: ≤ 0.015 µg/mL; MIC50 [7]: 0.06 µg/mL; MIC [8, 20]: 0.5 µg/mL; MIC [8, 21]: ≤ 0.015 µg/mL; MIC50 [8]: 0.03 µg/mL; MIC [9, 22]: 1 µg/mL; MIC [9, 23]: 0.12 µg/mL; MIC50 [9]: 0.5 µg/mL; MIC [10, 24]: 0.25 µg/mL; MIC [10, 25]: 0.12 µg/mL; MIC50 [10]: 0.12 µg/mL; MIC [11, 26]: 0.25 µg/mL; MIC [11, 27]: 0.06 µg/mL; MIC50 [11]: 0.12 µg/mL; MIC [12, 28]: 0.12 µg/mL; MIC [12, 29]: 0.03 µg/mL; MIC50 [12]: 0.09 µg/mL
